How the values were obtained:
[1] = target: T1, full-length CDK9 (amino acids 1-372; Accession Number NP_001252.1) (Homo sapiens, UniProt P50750); assay: KdELECT binding assay, CDK9
T1 construct: full-length CDK9 (amino acids 1-372); purchased; host or cells: bacteria (E. coli, BL21-derived, T7 phage)
Procedure: Exemplary compounds were tested for ability to bind to full-length CDK9 (amino acids 1-372; Accession Number NP_001252.1) expressed from bacteria. Compounds were tested using a KdELECT assay.
Kinase-tagged T7 phage strains were prepared in an E. coli host derived from the BL21 strain. E. coli were grown to log-phase and infected with T7 phage and incubated with shaking at 32° C. until lysis. The lysates were centrifuged and filtered to remove cell debris. The remaining kinases were produced in HEK-293 cells and subsequently tagged with DNA for qPCR detection. Streptavidin-coated magnetic beads were treated with biotinylated small molecule ligands for 30 minutes at room temperature to generate affinity resins for kinase assays. The liganded beads were blocked with excess biotin and washed with blocking buffer (SeaBlock (Pierce), 1% BSA, 0.05% Tween 20, 1 mM DTT) to remove unbound ligand and to reduce non-specific binding. Binding reactions were assembled by combining kinases, liganded affinity beads, and test compounds in 1× binding buffer (20% SeaBlock, 0.17×PBS, 0.05% Tween 20, 6 mM DTT). Test compounds were prepared as 111× stocks in 100% DMSO. Kd values were determined using an 11-point 3-fold compound dilution series with three DMSO control points. All compounds for Kd measurements are distributed by acoustic transfer (non-contact dispensing) in 100% DMSO. The compounds were then diluted directly into the assays such that the final concentration of DMSO was 0.9%. All reactions performed in polypropylene 384-well plate. Each was a final volume of 0.02 mL. The assay plates were incubated at room temperature with shaking for 1 hour and the affinity beads were washed with wash buffer (1×PBS, 0.05% Tween 20). The beads were then re-suspended in elution buffer (1×PBS, 0.05% Tween 20, 0.5 μM nonbiotinylated affinity ligand) and incubated at room temperature with shaking for 30 minutes. The kinase concentration in the eluates was measured by qPCR.

HEK293 cells = assay: Cellular growth inhibition assay (CellTiter-Glo), HEK293 cells; assay type: cell-based; settings: Homo sapiens, 72 h, three days compound treatment, CellTiter-Glo 2.0, read-out: CTG HEK293 GI50
Outline: (§1)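 GI50 derived by four-parameter regression of luminescence (CellTiter-Glo 2.0) at Day 0 and Day 3, normalized to DMSO wells. Cells (HeLa, HEK293; 500/well, DMEM plus 10% FBS) were dosed with compound dilutions 24 h post-seeding and exposed for three days at 37 °C.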

HeLa cells = assay: Cellular growth inhibition assay (CellTiter-Glo), HeLa cells; assay type: cell-based; settings: Homo sapiens, 72 h, three days compound treatment, CellTiter-Glo 2.0, read-out: CTG HELA GI50
Outline: as §1

KRAS G12C = target: T2, KRAS G12C (Homo sapiens, UniProt P01116, G12C); assay: KRAS G12C nucleotide exchange assay (SOS1 mediated, HTRF); assay type: biochemical; settings: 1 hr pre-incubation at RT, read-out: IC50 (inhibition of KRas G12C)
T2 construct: Kras (aa 2-169), GST; purchased Reaction Biology Corporation (RBC)
T2 sequence (P01116 2-169 isoform P01116-2 G12C): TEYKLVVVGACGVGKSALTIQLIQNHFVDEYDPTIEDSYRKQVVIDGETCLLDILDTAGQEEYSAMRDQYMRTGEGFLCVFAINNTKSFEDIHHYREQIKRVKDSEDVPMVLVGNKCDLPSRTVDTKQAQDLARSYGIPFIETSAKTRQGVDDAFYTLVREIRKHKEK
Outline: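 HTRF nucleotide exchange using KRAS G12C mixed with anti-GST Tb antibody and pre-incubated with compound for 1 h at RT. Exchange was started with SOS1 plus labelled GTP. Compounds ran as 10-point, 3-fold dilutions from 10 μM, with no-SOS1 or top concentration as blank and IC50 from a variable-slope sigmoidal fit.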

T1 sequence (P50750 whole entry, the tested form may be a part): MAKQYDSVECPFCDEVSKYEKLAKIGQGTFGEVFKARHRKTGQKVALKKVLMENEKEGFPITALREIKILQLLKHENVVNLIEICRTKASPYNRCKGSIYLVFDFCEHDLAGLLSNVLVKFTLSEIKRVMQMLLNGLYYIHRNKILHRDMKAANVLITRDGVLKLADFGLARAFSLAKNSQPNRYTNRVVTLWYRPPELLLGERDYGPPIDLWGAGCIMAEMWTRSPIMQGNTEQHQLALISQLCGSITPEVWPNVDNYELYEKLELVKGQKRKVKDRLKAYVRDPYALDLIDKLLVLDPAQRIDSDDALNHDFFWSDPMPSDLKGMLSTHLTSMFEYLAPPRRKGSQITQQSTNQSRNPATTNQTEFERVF

## CCc1cnn2c(NCc3ccc(OCCOCCOCCOCCOCCN(C)C/C=C/C(=O)N4CCN(c5nc(OC[C@@H]6CCCN6C)nc6c5CCN(c5cccc7cccc(Cl)c57)C6)C[C@@H]4CC#N)nc3)cc(N3CCCC[C@H]3CCO)nc12 [Compound I-92, 2-((S)-4-(7-(8-chloronaphthalen-1-yl)-2-(((S)-1-methylpyrrolidin-2-yl)methoxy)-5,6,7,8-tetrahydropyrido [3,4-d]pyrimidin-4-yl)-1-((E)-1-((5-(((3-ethyl-5-((S)-2-(2-hydroxyethyl)piperidin-1-yl)pyrazolo[1,5-a]pyrimidin-7-yl)amino)methyl)pyridin-2-yl)oxy)-15-methyl-3,6,9,12-tetraoxa-15-azanonadec-17-en-19-oyl)piperazin-2-yl)acetonitrile]
[1]
  Kd: > 2500 nM
HEK293 cells
  GI50: 500 to 1500 nM
HeLa cells
  GI50: < 500 nM
KRAS G12C
  IC50: < 100 nM

— patent publication US20250032623A1, “HETEROBIFUNCTIONAL COMPOUNDS AND THEIR USE IN TREATING DISEASE” (HALDA THERAPEUTICS OPCO, INC., priority 2021, published 2025)
